# Patent US20260027116A1, “Methods of Treating Chronic Graft-Versus-Host Disease Following Allogeneic Hematopoietic Stem Cell Transplantation” (Kadmon Corporation, LLC, priority 2022, published 2026)
# Tested on: patients with cGVHD
# Conditions: Cohort 3 400 mg QD
smiles,measurement,value
"CC(C)NC(=O)COc1cccc(-c2nc(Nc3ccc4[nH]ncc4c3)c3ccccc3n2)c1 [Belumosudil, 2-{3-[4-(1H-indazol-5-ylamino)-2-quinazolinyl]phenoxy}-N-(propan-2-yl) acetamide]",Blood creatine phosphokinase increased: # Events,0
same,Blood creatine phosphokinase increased: Affected/At Risk (%),0/21 (0%)
same,Blood creatinine increased: # Events,2
same,Blood creatinine increased: Affected/At Risk (%),2/21 (9.52%)
same,Blood loss anaemia: # Events,0
same,Blood loss anaemia: Affected/At Risk (%),0/21 (0%)
same,Bronchial secretion retention: # Events,0
same,Bronchial secretion retention: Affected/At Risk (%),0/21 (0%)
same,Bronchitis: # Events,1
same,Bronchitis: Affected/At Risk (%),1/21 (4.76%)
same,Bronchoscopy: # Events,0
same,Bronchoscopy: Affected/At Risk (%),0/21 (0%)
same,Catheter site haemorrhage: # Events,0
same,Catheter site haemorrhage: Affected/At Risk (%),0/21 (0%)
same,Chills: # Events,0
same,Chills: Affected/At Risk (%),0/21 (0%)
same,Chronic kidney disease: # Events,0
same,Chronic kidney disease: Affected/At Risk (%),0/21 (0%)
same,Conjunctival haemorrhage: # Events,1
same,Conjunctival haemorrhage: Affected/At Risk (%),1/21 (4.76%)
same,Conjunctivitis: # Events,3
same,Conjunctivitis: Affected/At Risk (%),3/21 (14.29%)
same,Constipation: # Events,4
same,Constipation: Affected/At Risk (%),3/21 (14.29%)
same,Contrast media allergy: # Events,0
same,Contrast media allergy: Affected/At Risk (%),0/21 (0%)
same,Contusion: # Events,4
same,Contusion: Affected/At Risk (%),3/21 (14.29%)
same,Corneal abrasion: # Events,0
same,Corneal abrasion: Affected/At Risk (%),0/21 (0%)
same,Corneal infection: # Events,0
same,Corneal infection: Affected/At Risk (%),0/21 (0%)
same,Cough: # Events,9
same,Cough: Affected/At Risk (%),7/21 (33.33%)
same,"Death, No. (%)",2 (10)
same,Decreased appetite: # Events,4
same,Decreased appetite: Affected/At Risk (%),4/21 (19.05%)
same,Dehydration: # Events,2
same,Dehydration: Affected/At Risk (%),2/21 (9.52%)
same,Depression: # Events,3
same,Depression: Affected/At Risk (%),3/21 (14.29%)
same,Diarrhoea: # Events,11
same,Diarrhoea: Affected/At Risk (%),7/21 (33.33%)
same,Dizziness: # Events,2
same,Dizziness: Affected/At Risk (%),2/21 (9.52%)
same,Drug eruption: # Events,0
same,Drug eruption: Affected/At Risk (%),0/21 (0%)
same,"Drug-related AE, No. (%)",14 (67)
same,"Drug-related SAE, No. (%)",0
same,Dry eye: # Events,2
same,Dry eye: Affected/At Risk (%),2/21 (9.52%)
same,Dry skin: # Events,1
same,Dry skin: Affected/At Risk (%),1/21 (4.76%)
same,Dyspepsia: # Events,1
same,Dyspepsia: Affected/At Risk (%),1/21 (4.76%)
same,Dysphagia: # Events,3
same,Dysphagia: Affected/At Risk (%),2/21 (9.52%)
same,Dyspnoea exertional: # Events,0
same,Dyspnoea exertional: Affected/At Risk (%),0/21 (0%)
same,Dyspnoea: # Events,6
same,Dyspnoea: Affected/At Risk (%),6/21 (28.57%)
same,Embolism: # Events,1
same,Embolism: Affected/At Risk (%),1/21 (4.76%)
same,Enamel anomaly: # Events,0
same,Enamel anomaly: Affected/At Risk (%),0/21 (0%)
same,Epidural lipomatosis: # Events,0
same,Epidural lipomatosis: Affected/At Risk (%),0/21 (0%)
same,Epstein-Barr virus infection: # Events,0
same,Epstein-Barr virus infection: Affected/At Risk (%),0/21 (0%)
same,Erectile dysfunction: # Events,0
same,Erectile dysfunction: Affected/At Risk (%),0/21 (0%)
same,Eye irritation: # Events,0
same,Eye irritation: Affected/At Risk (%),0/21 (0%)
same,Eye pain: # Events,0
same,Eye pain: Affected/At Risk (%),0/21 (0%)
same,Eye pruritus: # Events,0
same,Eye pruritus: Affected/At Risk (%),0/21 (0%)
same,Fall: # Events,1
same,Fall: Affected/At Risk (%),1/21 (4.76%)
same,Fatigue: # Events,14
same,Fatigue: Affected/At Risk (%),10/21 (47.62%)
same,Flatulence: # Events,1
same,Flatulence: Affected/At Risk (%),1/21 (4.76%)
same,Flushing: # Events,0
same,Flushing: Affected/At Risk (%),0/21 (0%)
